Measurements as given in patent US6673813B2, “Methods for identifying and treating resistant tumors” (priority 1994, dated 2004).
Values after ≈ are worked out from the molar mass of the structure shown. Like-named read-outs stand apart in the source and are kept apart here.

Columns and labels:
HL60/ADR cells [1] = test: Cytotoxicity of oncolytics in doxorubicin-resistant HL60/Adr cells; assay type: cell-based; settings: Homo sapiens
Text: (§1) See Marquardt, D., McCrone, S., and Center M. S., Cancer Res., 50: 1426, (1990). The mechanism(s) utilized by P190 to confer resistance to Adriamycin is not well understood but may involve the intracellular redistribution of Adriamycin away from the nucleus. See Marquardt, D. and Center, M. S., supra. Adriamycin is an inhibitor of topoisomerase II (Beck, W. T., Bull. Cancer, 77: 1131, (1990), which is an enzyme involved in DNA replication. Redistribution of Adriamycin away from the nucleus would therefore be an important component in cellular resistance to this drug. The studies published to date on P190 have utilized cell lines selected in vitro for resistance to Adriamycin (McGrath, T., Latoud, C., Arnold, S. T., Safa, A. R., Felsted, R. S., and Center, M. S., supra; Marquardt, D. and Center, M. S., supra; and Marquardt, D., McCrone, S., and Center M. S. Cancer Res., supra. The association of MRP (P190) with drug resistance was made by sodium dodecyl sulfate polyacrylamide gel electrophoresis (SDS-PAGE) of radioactive extracts prepared from Adriamycin-resistant HL60/Adr human leukemia cells labeled with 8-azido-alpha[^32P]ATP. See McGrath, T., Latoud, C., Arnold, S. T., Safa, A. R., Felsted, R. S., and Center, M. S., supra. The drug-resistance phenotype conferred by P190 is not limited to the anthracyclines. Epipodophyllotoxin resistance is linked to P190 expression. […]

HL60/S cells = test: Cytotoxicity of oncolytics in sensitive HL60/S cells; assay type: cell-based; settings: Homo sapiens, HL-60
Text: as §1

MRP [2] = target: T1, MRP (Homo sapiens, UniProt P33527); test: ATP-dependent transport into membrane vesicles of MRP-overexpressing HL60/ADR cells; assay type: biochemical; set-up: HL60/ADR cells (human leukemia cells grown in adriamycin and overexpressing MRP); endogenous in cells; host or cells: HL60/ADR (Adriamycin-selected human HL60 leukemia cells), plasma membrane vesicles
Procedure: (§2) HL60/ADR cells (human leukemia cells grown in adriamycin and overexpressing MRP), revertant HL60 cells, and parental HL60 cells, respectively, were harvested by centrifugation after cultivation in cell culture and plasma membrane vesicles were prepared according to standard methods. Briefly, the cells were lysed by incubation in hypotonic buffer (0.5 mM sodium phosphate (pH 7.0), 0.1 mM EDTA supplemented with protease inhibitors) for 1.5 hours, followed by homogenization in a homogenizer. After centrifugation of the homogenate at 12,000×g(4° C., 10 minutes), the supernatant was centrifuged at 100,000×g at 4° C. for 45 minutes. […] After centrifugation at 280,000×g at 4° C. for 2 hours, the interphase was collected, washed by centrifugation in incubation buffer (100,000×g) and passed 20 times through a 27-gauge needle.
Membrane vesicles (50 μg of protein) were incubated in the presence of 4 mM ATP, 10 mM MgCl2, 10 mM of creatine phosphate, and the labeled substrate in an incubation buffer containing 250 mM sucrose and 10 mM Tris-HCl, pH 7.4. The final volume was 110 μl. Aliquots of 20 μl were taken at predetermined times and diluted in 1 ml of ice-cold incubation buffer. The dilute samples were filtered immediately through a nitrocellulose membrane (0.2 μm pore size), presoaked in incubation buffer using a rapid filtration device and rinsed twice with 5 ml incubation buffer. The filters were immersed in liquid and measured in a liquid scintillation counter. ATP was replaced by an equal concentration of 5′-AMP in a control experiment. All rates of the ATP-dependent transport were obtained by subtracting the values obtained in the presence of 5′-AMP from those measured in the presence of ATP.

MRP [3] = target: T1, MRP; test: ATP-dependent transport of [3H]etoposide glucuronide / [3H]etoposide into membrane vesicles from MRP-overexpressing cells; settings: direct transport measurement in membrane vesicles
Text: FIG. 5, Panel A illustrates the ATP-dependent transport of [^3H]etoposide glucuronide into membrane vesicles from MRP-overexpressing cells. Panel B provides a comparison of MRP-mediated ATP-dependent transport of [^3H]etoposide glucuronide and [^3H]etoposide into membrane vesicles from MRP-overexpressing cells.

HL60/ADR cells [4] = test: Assay for reversal of Adriamycin resistance (cell growth, MTS); assay type: cell-based, human; settings: test compound in addition to Adriamycin, samples diluted to 20 μM, 25 μl per 100 μl well, 72 hours
Text: HL60/ADR is a continuous cell line, which was selected for Adriamycin™ resistance by culturing HL60, a human acute myeloblastic leukemia cell line, in increasing concentrations of Adriamycin™ until a highly resistant variant was attained. (McGrath, T., et al., Biochem. […] Marquardt, D. and Center, M. S., Cancer Res., 52: 3157, (1992); and Marquardt, D., et al., Cancer Res., 50: 1426, (1990)). […] Cells were harvested; washed twice with assay medium (same as culture media); counted; and diluted to 2×10^5 cells/ml in assay medium. Fifty μl of cells were aliquoted into wells of a 96 well tissue culture plate. One column of each 96 well plate served as a negative control and received assay medium containing no cells. Test compounds and references compounds were dissolved in dimethyl sulfoxide (DMSO) at a concentration of 5 mM. […] Assay standards were run in quadruplicate. 25 μl of 0.4% DMSO was added to four wells as a solvent control. […] The plates were incubated at 37° Centigrade for 72 hours in a humidified incubator with a 5% CO2 atmosphere. A CellTiter96 Aqueous Assay Kit (Promega) was used to measure cell viability and vitality via […] of a tetrazolium salt. The assay was performed in accordance with the vendors instructions, which required 2 ml of MTS reagent being mixed with 0.1 ml of PMS reagent and 20 μl of this solution was added to each well. The plates were incubated for 3 hours at 37° C. Absorbance was determined at 490 nm using a microtitre plate reader. The ability of a test compound to reverse the resistance of HL60/ADR cells to Adriamycin was determined by comparison of the absorbance of the wells containing a test compound in addition to Adriamycin with the absorbance of wells containing Adriamycin without a test compound. Controls were used to eliminate background and to ensure the results were not artifactual. The results of the assay are expressed as percent inhibition of cell growth.

[5] = tested on: membrane vesicles of parental and revertant HL60 cells; test: ATP-dependent transport into membrane vesicles of parental and revertant HL60 cells (low MRP expression); assay type: biochemical, human; settings: substrate 5 μM
Procedure: as §2
Membrane vesicles (50 μg of protein) were incubated in the presence of 4 mM ATP, 10 mM MgCl2, 10 mM of creatine phosphate, and the labeled substrate in an incubation buffer containing 250 mM sucrose and 10 mM Tris-HCl, pH 7.4. The final volume was 110 μl. […] The filters were immersed in liquid and measured in a liquid scintillation counter. […] All rates of the ATP-dependent transport were obtained by subtracting the values obtained in the presence of 5′-AMP from those measured in the presence of ATP.

T1 sequence (P33527 whole entry): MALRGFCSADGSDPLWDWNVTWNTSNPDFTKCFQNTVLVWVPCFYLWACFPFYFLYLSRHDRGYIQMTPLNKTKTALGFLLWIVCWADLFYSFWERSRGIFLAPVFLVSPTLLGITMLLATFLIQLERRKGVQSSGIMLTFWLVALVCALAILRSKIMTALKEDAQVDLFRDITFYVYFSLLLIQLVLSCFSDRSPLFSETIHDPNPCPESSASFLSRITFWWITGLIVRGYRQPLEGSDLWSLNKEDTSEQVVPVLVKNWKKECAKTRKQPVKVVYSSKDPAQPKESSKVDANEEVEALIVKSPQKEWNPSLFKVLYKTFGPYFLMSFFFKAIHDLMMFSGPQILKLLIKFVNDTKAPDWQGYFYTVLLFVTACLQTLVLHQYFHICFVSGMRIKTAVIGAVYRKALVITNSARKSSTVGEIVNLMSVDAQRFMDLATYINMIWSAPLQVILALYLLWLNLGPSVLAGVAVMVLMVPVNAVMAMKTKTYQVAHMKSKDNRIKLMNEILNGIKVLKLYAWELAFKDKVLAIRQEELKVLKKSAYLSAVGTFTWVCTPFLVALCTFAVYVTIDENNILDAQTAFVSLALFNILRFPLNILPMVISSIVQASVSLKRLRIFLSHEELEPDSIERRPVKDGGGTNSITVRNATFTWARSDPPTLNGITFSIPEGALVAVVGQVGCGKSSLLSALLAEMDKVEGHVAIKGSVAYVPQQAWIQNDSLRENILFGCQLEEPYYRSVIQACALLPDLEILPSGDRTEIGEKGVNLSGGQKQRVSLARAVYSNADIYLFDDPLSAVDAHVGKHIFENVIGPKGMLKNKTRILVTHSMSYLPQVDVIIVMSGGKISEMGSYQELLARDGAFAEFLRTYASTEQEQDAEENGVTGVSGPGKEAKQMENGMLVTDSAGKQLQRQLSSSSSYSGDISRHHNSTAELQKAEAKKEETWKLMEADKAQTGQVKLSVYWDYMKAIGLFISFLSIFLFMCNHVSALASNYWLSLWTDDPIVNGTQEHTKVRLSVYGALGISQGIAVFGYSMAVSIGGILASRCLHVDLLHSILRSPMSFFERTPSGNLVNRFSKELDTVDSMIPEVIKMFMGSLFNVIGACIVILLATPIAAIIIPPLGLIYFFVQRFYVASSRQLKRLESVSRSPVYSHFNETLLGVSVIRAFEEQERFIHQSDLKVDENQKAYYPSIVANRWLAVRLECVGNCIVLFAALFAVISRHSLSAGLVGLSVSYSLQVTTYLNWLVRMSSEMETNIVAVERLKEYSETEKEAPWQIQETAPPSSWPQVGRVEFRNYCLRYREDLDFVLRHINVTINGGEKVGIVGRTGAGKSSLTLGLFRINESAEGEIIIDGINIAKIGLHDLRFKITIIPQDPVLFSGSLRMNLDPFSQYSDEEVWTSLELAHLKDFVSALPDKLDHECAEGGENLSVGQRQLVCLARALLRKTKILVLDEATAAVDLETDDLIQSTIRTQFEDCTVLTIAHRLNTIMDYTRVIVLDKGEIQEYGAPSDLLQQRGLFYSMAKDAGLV

Row | SMILES | melting point | % Inhibition (percent inhibition of cell growth) (HL60/ADR cells [4]) [%] | further results
1 | CCCc1c(OCCCCOc2cc(O)c(-c3ccc(F)cc3)cc2CC)cccc1Oc1ccccc1C(=O)O (hydrate or solvate) [Example 9, 2-[2-Propyl-3-[4-[2-ethyl-5-hydroxy-4-(4-fluorophenyl)-phenoxy]butoxy]phenoxy]benzoic acid sesquihydrate] | 65 to 68 °C | – | –
2 | CCCCc1c(OCCCOc2cc(O)c(-c3ccc(F)cc3)cc2CC)cccc1Oc1ccccc1C(=O)O (hydrate or solvate) [Example 11, 2-[2-Butyl-3-[3-[2-ethyl-5-hydroxy-4-(4-fluorophenyl)phenoxy]propoxy]phenoxy]benzoic acid hydrate] | 62 to 64 °C | – | –
3 | COc1cccc2c1C(=O)c1c(O)c3c(c(O)c1C2=O)C[C@@](O)(C(=O)CO)C[C@@H]3O[C@H]1C[C@H](N)[C@H](O)[C@H](C)O1 [Adriamycin, Doxorubicin] | – | – | IC50 (HL60/ADR cells [1]; HL60/ADR): 2.2 mg/L (≈ 4.05 µM); IC50 (HL60/S cells): 0.011 mg/L (≈ 0.0202 µM)
4 | CCCCC/C=C\C\C=C/C=C/C=C/[C@@H](Sc1ccc(C(=O)O)cc1)[C@@H](O)CCCC(=O)O [BAY u9773] | – | – | type of inhibition of ATP-dependent LTC4 transport (MRP [2]; double-reciprocal (Lineweaver and Burk) plot): competitive inhibition; Ki (MRP [2]; inhibition of ATP-dependent transport of LTC4, vesicles of MRP-overexpressing cells, 37° C., 2 minutes, read-out: inhibition constant (Ki)): 0.7 µM
5 | COc1cc([C@@H]2c3cc4c(cc3[C@@H](O[C@@H]3O[C@@H]5CO[C@@H](C)O[C@H]5[C@H](O)[C@H]3O)[C@H]3COC(=O)[C@H]23)OCO4)cc(OC)c1O [Etoposide] | – | – | IC50 (HL60/ADR cells [1]; HL60/Adr cells (express P190), read-out: IC50): > 10 mg/L; IC50 (HL60/S cells): 0.39 mg/L (≈ 0.663 µM); substrate for MRP (MRP [3]): not a substrate for MRP
6 | CCCc1c(OCCCOc2cc(O)c(-c3ccc(F)cc3)cc2CC)cccc1Oc1cc(F)ccc1C(=O)O [Example 7, 4-Fluoro-2-[2-propyl-3-[3-[2-ethyl-5-hydroxy-4-(4-fluorophenyl)phenoxy]propoxy]phenoxy]benzoic acid] | 62 to 64 °C | 72 | –
7 | CCCc1c(OCCCCCOc2cc(O)c(-c3ccc(F)cc3)cc2CC)cccc1Oc1ccccc1C(=O)O [Example 8, 2-[2-Propyl-3-[5-[2-ethyl-5-hydroxy-4-(4-fluorophenyl)phenoxy]pentoxy]phenoxy]benzoic acid] | 65 °C (dec.) | 57 | –
8 | CCc1cc(-c2ccc(F)cc2)c(O)cc1OCCCOc1cccc(Oc2ccccc2C(=O)O)c1CC(C)C [Example 10, 2-[2-(2-Methylpropyl)-3-[3-[2-ethyl-5-hydroxy-4-(4-fluorophenyl)phenoxy]propoxy]phenoxy]benzoic acid] | 48 to 49 °C | 49 | –
9 | CCCc1c(Cc2ccccc2C(=O)O)cccc1OCCCOc1cc(O)c(-c2ccc(F)cc2)cc1CC [Example 14, 2-[[2-Propyl-3-[3-[2-ethyl-5-hydroxy-4-(4-fluorophenyl)phenoxy]propoxy]phenyl]methyl]benzoic acid] | 150 to 151 °C | 58 | –
10 | CCCCC/C=C\C\C=C/C=C/C=C/[C@@H](SC[C@H](N)C(=O)NCC(=O)O)[C@@H](O)CCCC(=O)O [LTD4] | – | – | substrate for the MRP protein (MRP [2]): substrates
11 | CCCCC/C=C\C\C=C/C=C/C=C/[C@@H](SC[C@H](N)C(=O)O)[C@@H](O)CCCC(=O)O [LTE4] | – | – | substrate for the MRP protein (MRP [2]): substrates
12 | N[C@@H](CCC(=O)N[C@@H](CSc1ccc([N+](=O)[O-])cc1[N+](=O)[O-])C(=O)NCC(=O)O)C(=O)O [S-(2,4-dinitrophenyl-[^3H]glutathione, S-(2,4-dinitrophenyl)-[^3H]glutathione] | – | – | transport rate compared with HL60/ADR membranes [5]: 10 times less; rate of ATP-dependent transport (MRP [2]; substrate 5 μM, HL60/ADR membranes): 50+4 pmol×mg protein^−1×min^−1
13 | COc1cc([C@@H]2c3cc4c(cc3[C@@H](O[C@@H]3O[C@@H]5CO[C@@H](C)O[C@H]5[C@H](O)[C@H]3O)[C@H]3COC(=O)[C@H]23)OCO4)cc(OC)c1O[C@@H]1O[C@H](C(=O)O)[C@@H](O)[C@H](O)[C@H]1O [etoposide glucuronide] | – | – | substrate for MRP (MRP [3]): mediated by MRP

More lines, main results first:

Row | melting point | SMILES | % Inhibition (percent inhibition of cell growth) (HL60/ADR cells [4]) [%] | further results
14 | 80 to 90 °C | CCCc1c(OCCCOc2cc(O)c(-c3ccc(F)cc3)cc2CC)cccc1S(=O)(=O)c1ccccc1C(=O)O (hydrate or solvate) [Example 17, 2-[2-Propyl-3-[3-[2-ethyl-4-(4-fluorophenyl)-5-hydroxyphenoxy]propoxy]phenylsulfonyl]benzoic acid hydrate] | – | –
15 | 153 to 155 °C | CCCc1c(OCCCOc2cc(O)c(-c3ccc(F)cc3)cc2CC)cccc1Sc1ccccc1C(=O)O [Example 15, 2-[2-Propyl-3-[3-[2-ethyl-4-(4-fluorophenyl)-5-hydroxyphenoxy]propoxy]thiophenoxy]benzoic acid] | 73 | –
16 | > 100 °C (dec.) | CCCc1c(OCCCOc2cc(O)c(-c3ccc(F)cc3)cc2CC)cccc1[S+]([O-])c1ccccc1C(=O)O (stereo not drawn) [Example 16, 2-[2-Propyl-3-[3-[2-ethyl-4-(4-fluorophenyl)-5-hydroxyphenoxy]propoxy]phenylsulfinyl]benzoic acid] | 35 | –
